Literature values in paper PMC7221964 (Molecules, 2020).
Like-named read-outs stand apart in the source and are kept apart here.

System: epigenetic reader proteins
From the text: ITC studies provided thermodynamic parameters (Gibbs free energy of binding ΔG°, enthalpy of binding ΔH°, entropy of binding ΔS°) for the association between five ...

SMILES	recognition by reader proteins (different epigenetic reader proteins)	recognition by reader proteins (panel of the same five reader proteins)
C[N+](C)(C)CCSCC(N)C(=O)O (centres unmarked) [KCme3, trimethylthialysine]	well recognized	–
C[N+](C)(C)CCCCCC(N)C(=O)O (centres unmarked) [trimethylhomolysine]	–	very well recognized
